Test results reported in a melting point compilation (Tetko et al.; mined from patent text by program, amines drawn as free bases though some values may be those of a salt).
Residues, ends and D or L forms follow the SMILES beside them. *: point of attachment. Cbz = O=C(OCc1ccccc1)*

melting point [°C]	SMILES
197 to 199	CCc1nc(N)nc(N)c1-c1ccc(N(Cc2ccccc2)Cc2ccccc2)c([N+](=O)[O-])c1
161	OC(c1ccnc2cc(Cl)ccc12)C(F)(F)F (centres undefined)
239 to 242	CC1=Nc2ccc(S(=O)(=O)NC3CCCCC3)cc2S(=O)(=O)N1
121 to 122	CCCc1c(OCCOCCOc2ccc3ccc(OCC(=O)O)cc3c2C(C)=O)ccc(C(C)=O)c1O
162	COc1cc2c(cc1OC)CN(CCCSc1ccc(NC(=O)c3cccc4c(=O)c5cccc(F)c5[nH]c34)cc1)CC2
186 to 188	CCCc1nc2cnc3ccccc3c2n1CCC1(O)CCOCC1
104 to 105	OCc1ncn2cc(Br)sc12
175 to 178	Cc1nc2ccccc2nc1Oc1ccc(O)cc1
152 to 154	CSC(=O)C(=O)c1ccc(NC=O)nc1
94 to 95	CCOC(=O)c1ccc2c(N)cccc2c1
286 to 288	O=C(O)c1ccc(-n2cc3ccccc3n2)cc1
176 to 178	C#CCN(c1cc(-n2nc3ccc(Cl)cn3c2=O)c(F)cc1C#N)S(=O)(=O)CC
170 to 176	O=C(O)C(=NOCc1ccc(Cl)cc1Cl)c1csc(NC(=O)C(F)(F)F)n1
119 to 121	Cc1cc(Oc2c(Cl)cc(C(F)(F)F)cc2[N+](=O)[O-])nn1C(=O)OC(C)(C)C
130	O=C1CCC(c2ccc(CCCN3CCN(c4ccccc4)CC3)cc2)N1 (centres undefined)
52 to 53	CC(=O)OCC1OC(N=[N+]=[N-])C(OC(C)=O)C(OC(C)=O)C1OC(C)=O (centres undefined)
221 to 224	O=C1Nc2cccc(-c3cnc4ccccc4c3)c2C12COc1cc3c(cc12)OCCO3 (centres undefined)
97	COc1cc(C(C)=O)c(OC)c2c1C(C)(C)CCC2(C)C
209 to 211	Cc1oc(-c2ccccc2)nc1CCOc1ccc(C=CC=CC=C2OC(=O)NC2=O)cc1
80	COc1ccc2c(Cl)cc(-n3cccn3)nc2c1
104 to 108	CN1CCN(c2cc(Br)cc3c2c(=O)n(Cc2ccccc2Cl)c(=O)n3Cc2ccccc2)CC1
162 to 188	Cc1ccccc1C(=O)Nc1ccc(C(=O)N2Cc3cccn3Cc3sccc32)cc1
83 to 84	CC[C@H](C)CNC(=O)C[C@H](O)[C@H](CC(C)C)C(=O)OC(C)(C)C
82.5 to 83.5	CCOC(=O)CC[C@H](NC(=O)c1ccc(Br)cc1)C(=O)OCC

melting point [°C]	SMILES
240 to 248	CS(=O)(=O)Nc1cccc(CNC(=O)c2nc3ccccc3c(=O)[nH]2)c1
255	Cc1cccc(-c2nc3c(o2)C(=O)c2ccccc2C3=O)c1
199 to 200	Oc1ccc(CCc2ccc(O)cc2)cc1
82 to 84	OCCN1CCN(c2nn(-c3ccc(C(F)(F)F)cc3)c3ccccc23)CC1
> 315	O=C(O)c1cnc2oc(C(=O)O)cc2c1
235 to 237	NC(=O)/C=C1/c2cc(F)cc(F)c2CC1O (centres undefined)
133 to 134	O=Cc1cn(Cc2ccc(Cl)cc2)nc1CN1CCC(c2ccccc2)(c2ccccc2)CC1
235 to 237	Cc1cc(C)c2ccc(NC(=O)Nc3ccccc3CCc3cc(C(C)(C)C)c(O)c(C(C)(C)C)c3)nc2n1
178 to 183	NC(=O)CCc1ccc(Oc2ccc3c(c2)S(=O)(=O)N=C2CCCN23)cc1
195 to 196	Cc1ccnc(-n2sc3ccccc3c2=O)c1
180 to 182	CON=Cc1ccc2c(c1)ncn2-c1cccc(-c2ccncn2)c1
186 to 188	CN(Cc1cccc2c1CN(C1CCC(=O)NC1=O)C2=O)C(=O)Nc1ccccc1 (centres undefined)
126	Cc1nc2cc(CCCN3C(=O)c4ccccc4C3=O)ccc2s1
84 to 85	CC(C)(C)OC(=O)NCCC(=O)NCCC(=O)OCc1ccccc1
210 to 211	Clc1ccc(-c2cn3cc(Br)ccc3n2)cc1
196 to 200	CC1=C(C)C(=O)N(CC(=O)N2c3ccccc3N(Cc3ccccc3)C(=O)[C@H]3CCC[C@H]32)C1=O (relative stereo)
201 to 203	O=P(O)(O)C(O)(Cc1nn(-c2ccc(F)cc2)cc1-c1ccc(Cl)cc1)P(=O)(O)O
124 to 125	COc1ccc(Cn2c(=O)c3ccccc3n(CCCCl)c2=O)cc1
135 to 137	NC(=S)NCCSCc1c[nH]cn1
109 to 111	Cc1ccc(C)c(COc2ccc(N)nn2)c1
162 to 164	CCOC(=O)CCCOc1ccc(C(=O)Nc2ccccc2Oc2ccccc2-c2nnn[nH]2)cc1
217 to 218	O=C1CCC(N2C(=O)c3cccc(NC(=O)Cc4ccccc4)c3C2=O)C(=O)N1 (centres undefined)
198 to 200	CC1=C(c2ccncc2)SC(c2ccc(O)cc2)C(=O)N1 (centres undefined)
78 to 86	C=C(Cc1ccc(Cl)cc1)C(=O)O

melting point [°C]	SMILES
212 to 214	Nc1ccc2nc(-c3ccccc3)oc2c1
266 to 267	NC1CCN(c2nc3c(cc2F)c(=O)c(C(=O)O)cn3C2CC2)C1 (centres undefined)
173 to 174	CC(=O)OC1CC2C3CCC4=CC(=O)CCC4(C)C3CCC2(C)C1N(C)C(=O)C(F)(F)F (centres undefined)
65 to 66	CC(=O)OC1CCCC2=CCC3C4CCC(C(C)CCCC(C)C)C4(C)CCC3C21C (centres undefined)
262 to 264	COc1cccc2c1CN(c1c(F)cc3c(=O)c(C(=O)O)cn4c3c1OCC4C)C2 (centres undefined)
148 to 150	NC(=O)c1cccc(CSCCNC(=O)c2c(Cl)cccc2Cl)c1
200 to 202	Cc1ccc2c(c1)c1c(n2C(=O)c2ccccc2)CCC(C(=O)O)C1 (centres undefined)
207 to 209	CS(=O)(=O)c1cccc(C2=C(c3ccccc3)C(=O)N(c3ccc(F)cc3)C2)c1
265 to 266	COc1ccc(/C=C/c2nc3c([nH]2)c(=O)n(C)c(=O)n3C)c(OC)c1OC
101 to 103	CCCN=C1SC(=CC(=O)O)C(=O)N1CCC
203 to 205	C[C@H](NC(=O)[C@H](C)NC(=O)OCc1ccccc1)C(=O)O (Cbz-Ala-Ala-OH)
57	CCOn1c(OC)n[nH]c1=O
150	Fc1ccc(Cn2c(NC3CCN(CCOc4ccc5ccccc5n4)CC3)nc3ccccc32)cc1
164 to 165	CC(C)N1C(=O)c2cccc3c(S(C)(=O)=O)ccc1c23
65 to 67	CCCCCCCCCCCCCCC(=O)C(=O)NC(C=CC(=O)O)CCCC (centres undefined)
50 to 51	CCCCC/C(=C/C=C/C(=O)Oc1ccc([N+](=O)[O-])cc1)c1cccc(F)c1
120 to 130	Nc1ccc(C(=O)c2ccccc2)c(Cl)c1
177 to 178	COC(=O)c1ccc(C(=NO)c2ccc(C(=O)OC)cc2)cc1
81 to 83	Cn1nccc1[C@H](O)c1ccccc1
245 to 246	CN(C)c1nc2ncnc(NCc3ccco3)c2[nH]1
230 to 232	C=CCNc1ccnc2cn[nH]c12
304 to 305	Cn1ncc2c1C(=O)Nc1cccnc1N2
148 to 150	C/C(=C(\C#N)C(=S)/N=C/N(C)C)N1CCCN(c2ccc(F)c(C)c2)CC1
202	CCOC(c1cccc2cccnc12)n1c(NC2CCN(C(CN)C(C)C)CC2)nc2ccccc21 (centres undefined)

melting point [°C]	SMILES
197 to 199	COc1ccc(C2=NN(c3ccc(C(C)(C)C)cc3)C(=O)[C@H]3CC=CC[C@@H]23)cc1OC (relative stereo)
149 to 151	O=C(O)c1cccc(COc2cccc(OCc3ccc4ccccc4n3)c2)c1
222 to 223	O=C(O)Cc1nc(-c2ccc(Cl)c(Cl)c2)oc1-c1ccoc1
117 to 119	CCOC(=O)c1cnc2c(c(C)nn2C)c1N(C)S(=O)(=O)c1ccc(Oc2ccncc2)cc1
144 to 145	O=C(Nc1ccc(CCCc2nnn[nH]2)cc1)C(F)(F)C(F)(F)C(F)(F)F
62.5 to 63.5	O=C(CI)OCc1ccc([N+](=O)[O-])cc1
65 to 80	CC(=O)C(=Cc1cccc([N+](=O)[O-])c1)C(=O)OC(C)(C)CN(C)CCC(c1ccccc1)c1ccccc1
184 to 186	CC1C=CC(C(=O)O)n2c(=O)n(CCC(=O)O)c(=O)n21 (centres undefined)
218 to 219	O=C1CCN(C(=O)C(F)(F)F)c2ccccc2CN1
95 to 100	Cc1cc(F)ccc1-c1ccc(S(=O)(=O)N2c3ccccc3CC2C(=O)NCc2ccc(CC(=O)O)cc2)cc1 (centres undefined)
131 to 135	CC(C)(C)c1cc(C=C2SCN(CCO)C2=O)cc(C(C)(C)C)c1O
96	COc1cc(C)cc(OC)c1N(CC1CCCCC1)C(=O)CNC(=O)c1cc2ccccc2n1CCC(=O)NC1C2CC3CC(C2)CC1C3 (centres undefined)
> 240	CC#Cc1cc(C)c(C2=C(O)C3(CCN(OC)CC3)N(C)C2=O)c(C)c1
124 to 125	Cn1nc(-c2ccccc2Cl)nc1-c1cccc([N+](=O)[O-])c1Cl
147	N=C(N)c1ccc2cc(OC(=O)[C@H]3CC[C@H](CN)CC3)ccc2c1
91 to 93	CCC1(CC)CN(C(C)(C)C)C(=O)C(CC)(CC)N1OC(=O)c1ccccc1
214 to 215	COc1cccc(-c2cc(S(=O)(=O)c3ccc(N)cc3)cc(N3CCCC3)n2)c1
206 to 207	O=C(O)C1=Cc2c(Cl)ccc(Cl)c2OC1C(F)(F)F (centres undefined)
78 to 79	COc1ccc2cc3c(Cl)nn(CC(C)N(C)C)c3nc2c1 (centres undefined)
192 to 198	Cc1c(C(F)(F)F)n(C)c(=O)n(-c2cc(N)c(C#C[Si](C)(C)C)cc2F)c1=O
89 to 90	COc1cccc(-c2cnn(-c3ccccn3)c2)c1

SMILES	melting point [°C]
COc1cccc2c1C13CCN(C)C(C2)C1(O)CCC(=O)C3 (centres undefined)	191 to 193
N#Cc1ccc(N2C(=O)NC(=Cc3ccccc3O)C2=O)c2ccccc12	146 to 149
Cn1nc2n(c1=O)-c1ccc(Cl)nc1C(c1ccccc1Cl)=NC2	200 to 202
N#Cc1ccc(N2C(=O)NC3(CCOCC3)C2=O)cc1C(F)(F)F	192 to 193
CCC(=O)OC1CCC2C3CCC4=CC(=O)CCC4(C=O)C3CCC12C (centres undefined)	119 to 121
O=S(=O)(Cl)c1ccccc1CCl	43 to 45
